# PubChem BioAssay (NCI)
#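 In this assay, cells in 96-well plates receive the compound at five concentrations for 48 hours. Endpoints are linearly interpolated between the surrounding concentrations. At the GI50, growth is halved. The concentration for full growth arrest is given as TGI.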
# Legend:
# Assay in all cases: growth of human tumour cells (NCI), 48 h
# [1] = system: HOP-92 NSCLC
# [2] = system: MALME-3M melanoma
# [3] = system: UO-31 renal
# [4] = system: UACC-62 melanoma
# [5] = system: SK-MEL-2 melanoma
# [6] = system: KM12 colon
# [7] = system: OVCAR-8 ovarian
# [8] = system: NCI-H23 lung
# [9] = system: COLO 205 colon
# [10] = system: MCF7 breast
Compound,TGI [1],TGI [2],TGI [3],TGI [4],TGI [5],TGI [6],TGI [7],TGI [8],TGI [9],GI50 [1],GI50 [10],TGI [10],GI50 [3],GI50 [4],GI50 [5],GI50 [6],GI50 [7],GI50 [8],GI50 [9]
CC(C)c1cc(OCC(O)CO)cc(C(C)C)c1 (centres undefined),> 100 µM,> 100 µM,> 100 µM,> 100 µM,> 100 µM,> 100 µM,> 100 µM,> 100 µM,> 100 µM,–,–,–,–,–,–,–,–,–,–
Cc1c(Sc2ccccc2)[n+](=O)c2cc(Cl)c(Cl)cc2n1[O-],51.4 µM,–,> 100 µM,> 100 µM,> 100 µM,> 100 µM,> 100 µM,> 100 µM,> 100 µM,20 µM,38.3 µM,> 100 µM,> 100 µM,> 100 µM,> 100 µM,> 100 µM,25.6 µM,33.2 µM,49 µM
COc1ccc(Nc2c3ccccc3nc3[nH]c4ccccc4c23)cc1,–,–,> 50 µM,> 50 µM,> 50 µM,> 50 µM,> 50 µM,> 50 µM,> 50 µM,–,7.95 µM,> 50 µM,38.9 µM,16.2 µM,> 50 µM,> 50 µM,30.2 µM,> 50 µM,17.8 µM
CN1C(Cl)=NS(=O)(=O)c2ccccc21,> 100 µM,–,> 100 µM,> 100 µM,> 100 µM,> 100 µM,> 100 µM,> 100 µM,> 100 µM,–,–,> 100 µM,–,–,–,–,–,–,–
CCc1nc(N)nc(N)c1-c1ccc(Cl)c(N=CN(C)C)c1,> 100 µM,–,> 100 µM,> 100 µM,> 100 µM,> 100 µM,> 100 µM,> 81.5 µM,> 100 µM,–,–,> 100 µM,–,–,–,–,–,–,–
O=C1OC(c2ccccc2)=N/C1=C\c1cccc(F)c1,> 100 µM,–,> 100 µM,> 100 µM,> 100 µM,> 100 µM,64.9 µM,> 100 µM,> 100 µM,–,–,> 100 µM,–,–,–,–,–,–,–
C=CS(=O)(=O)CCN1CC1,> 10 µM,> 10 µM,–,> 10 µM,–,> 10 µM,> 10 µM,> 10 µM,> 10 µM,–,–,> 10 µM,–,–,–,–,–,–,–
CC1=C(/C=C/C(C)=C/C=C/C(C)=C/CO)C(C)(C)CCC1,–,29.1 µM,31.8 µM,45.9 µM,44 µM,> 100 µM,–,54.8 µM,38.3 µM,–,–,–,–,–,–,–,–,–,–
ClCc1ccc(Cn2cnc3c(Cl)nc(Cl)nc32)cc1,–,–,35.5 µM,4.4 µM,43.5 µM,3.23 µM,38.3 µM,23.2 µM,> 100 µM,–,–,–,19.3 µM,2.06 µM,19.8 µM,1.8 µM,20 µM,7.62 µM,3.45 µM
